# Where two headings read alike, the source gives them in different places.
# Assays:
# Assay type in all cases: cell-based
# [1] = test system: Fusobacterium symbiosum 1470; assay: Susceptibility of anaerobic bacteria, agar dilution; conditions: read-out: 24 Hr. Minimum Inhibitory Concentration
# [2] = test system: Propionibacterium acnes 79; assay: as above; conditions: read-out: 24 Hr. Minimum Inhibitory Concentration
# [3] = test system: Bacteroides fragilis sp. thetaiotaomicron 1438; assay: as above; conditions: 24 h, read-out: 24 Hr. Minimum Inhibitory Concentration
# [4] = test system: Clostridium innocuum 1373; assay: as above; conditions: read-out: 24 Hr. Minimum Inhibitory Concentration
# Actinomyces bovis 13684 = assay: as above; conditions: read-out: 24 Hr. Minimum Inhibitory Concentration
# [5] = test system: Bacteroides fragilis sp. fragilis 1877; assay: as above; conditions: 24 h, read-out: 24 Hr. Minimum Inhibitory Concentration
# [6] = test system: Veillonella alcalescens 1; assay: as above; conditions: read-out: 24 Hr. Minimum Inhibitory Concentration
# [7] = test system: Propionibacterium acnes 44; assay: as above; conditions: Cutibacterium acnes, 24 h; Propionibacterium acnes 44; read-out: 24 Hr. Minimum Inhibitory Concentration
# [8] = test system: Fusobacterium necrophorum 13859; assay: as above; conditions: read-out: 24 Hr. Minimum Inhibitory Concentration
# [9] = test system: Eubacterium aerofaciens 1235; assay: as above; conditions: read-out: 24 Hr. Minimum Inhibitory Concentration
# [10] = test system: Peptococcus anaerobius 1428; assay: as above; conditions: 24 h, read-out: 24 Hr. Minimum Inhibitory Concentration
# [11] = test system: Clostridium septicum bovine; assay: as above; conditions: 24 h, read-out: 24 Hr. Minimum Inhibitory Concentration
# Procedure: (§1) The susceptibility of anaerobic bacteria, both gram positive and gram negative, to a representative number of the novel compounds of this application was determined using the agar dilution method. The bacteria used were isolated from patients hospitalized at the Indiana University Medical Center. The isolates were identified in the anaerobe laboratory of the Medical Center by the criteria established by Dowell et al., Laboratory Methods in Anaerobic Bacteriology. Public Health Serv. Publ. No. 1803 (1968) [Center for Disease Control, Atlanta, Ga.]; and by Smith et al., The Pathogenic Anaerobic Bacteria, pages 96-136 (1968) [Charles C. Thomas, Publisher, Springfield, Ill.]. All the organisms were maintained in chopped meat glucose medium (Scott Labs) at room temperature.
# (§2) The method used for the agar dilution tests was based on the studies of Sutter et al., Antimicrob. Ag. Chemother. 3, 188-193 (1973). The strains of anaerobic bacteria were grown in 16 × 120 mm. tubes for 16 to 18 hours in Thioglycolate medium without indicator--135C (Becton, Dickinson and Co.), to which was added 5 mcg. of hemin per milliliter prior to autoclaving, plus 1 mg. of sodium bicarbonate and 0.1 mcg. of filter-sterilized menadione per milliliter after autoclaving. The growth tubes for the bacteria Veillonella alcalescens were additionally supplemented with 5 mg. of sodium lactate per milliliter. The strains were adjusted to the turbidity of the No. 1 McFarland standard in Thioglycolate medium without indicator--135C containing an additional 0.13 percent Bacto-agar (Difco). Each strain was then applied to the surface of the petri plate (100 mm. × 15 mm.) by means of a replicator.
# (§3) For the agar dilution studies, two-fold dilutions of the test compounds were prepared in deionized water to which was then added laked sheep blood and filter-sterilized menadione so the concentrations after the agar dilution were 5 percent and 10 mcg./ml. respectively. An equal volume of double strength Brucella agar (Becton, Dickinson and Co.) was mixed with each dilution in a water bath held at 50°C. and then poured onto the petri plates.
# (§4) All of the procedures were done inside a plastic glove box, except for the incubation of the growth tubes and the pouring of the plates. After the plates hardened, they were put inside the glove box for a minimum of two hours before they were inoculated. Generally, the glove box procedures of Aranki et al., Applied Microbiology 17, 568-576 (1969), were followed, but the following modifications were used. Dry materials were introduced into the glove box by evacuating the lock to 28 inches of mercury and filling once with nitrogen gas, followed by evacuating in the same manner and filling with an 80 percent nitrogen plus 10 percent CO2 plus 10 percent hydrogen gas mixture. Liquid media and agar plates were introduced into the glove box by evacuating the lock to 10 inches of mercury and filling with gas four times. The nitrogen gas was used to fill the lock for the first two cycles of evacuation, with the gas mixture described above used for the final two fillings.
# (§5) All the plates were incubated at 37°C. in Gas Pak jars (Becton, Dickinson and Co.) containing palladium-coated alumina catalysts (reactivated after each use). The results of the agar dilution tests were read after about 24 hours of incubation. The minimum inhibitory concentration (MIC) was recorded as the lowest concentration of test compound at which there was no growth.
# (§6) The results of these in vitro tests are recorded in Charts 11 and 12 which follow. The test compounds are identified in the same manner as in the previous experiments. The antibiotics cephalothin and erythromycin were also run simultaneously with the novel compounds of this application, for comparison purposes, and the results are included in Charts 11 and 12 below.
# [12] = test system: Clostridium septicum 1128; assay: as above; conditions: 24 h, read-out: 24 Hr. Minimum Inhibitory Concentration
# Procedure: as §1, §2, §3, §4, §5, §6
# Clostridium ramosum 1313 = assay: as above; conditions: read-out: 24 Hr. Minimum Inhibitory Concentration
# [13] = test system: Bacteroides fragilis sp. fragilis 1936B; assay: as above; conditions: 24 h, read-out: 24 Hr. Minimum Inhibitory Concentration
# [14] = test system: Bacteroides fragilis sp. vulgatus 1211; assay: as above; conditions: 24 h, read-out: 24 Hr. Minimum Inhibitory Concentration
# [15] = test system: Clostridium perfringens 81; assay: microbe, parasite or virus in culture; conditions: Clostridium perfringens, 81, 24 h, read-out: 24 Hr. Minimum Inhibitory Concentration
# [16] = test system: Bacteroides fragilis sp. vulgatus 1563; assay: Susceptibility of anaerobic bacteria, agar dilution; conditions: 24 h, read-out: 24 Hr. Minimum Inhibitory Concentration
# [17] = test system: Peptostreptococcus intermedius 1264; assay: as above; conditions: 24 h; Peptostreptococcus intermedius 1264; read-out: 24 Hr. Minimum Inhibitory Concentration
# [18] = [Clostridium] innocuum, 1373, 24 h
# [19] = Fusobacterium necrophorum, 13859, 24 h
# [20] = Collinsella aerofaciens, 1235, 24 h
# [21] = Thomasclavelia ramosa, 1313, 24 h
# [22] = Bacteroides fragilis sp. vulgatus 1563
Structure (SMILES),"MIC ([1]; Fusobacterium, 1470, 24 h) [µg/mL]","MIC ([2]; Cutibacterium acnes, 79, 24 h) [µg/mL]",MIC ([3]; Bacteroides fragilis) [µg/mL],"MIC [4, 18] [µg/mL]","MIC (Actinomyces bovis 13684; Actinomyces bovis, 13684, 24 h) [µg/mL]",MIC ([5]; Bacteroides fragilis) [µg/mL],"MIC ([6]; Veillonella parvula, 1, 24 h) [µg/mL]",MIC [7] [µg/mL],"MIC [8, 19] [µg/mL]","MIC [9, 20] [µg/mL]",MIC [10] [µg/mL],MIC [11] [µg/mL],MIC [12] [µg/mL],MIC (Clostridium ramosum 1313; [21]) [µg/mL],MIC ([13]; Bacteroides fragilis) [µg/mL],MIC ([14]; Bacteroides fragilis) [µg/mL],MIC [15] [µg/mL],MIC [17] [µg/mL],"MIC [16, 22] [µg/mL]",other results
"CCOC=Nc1c(C#N)c(-c2ncc([N+](=O)[O-])n2C)nn1C [Compound 4, Ethyl N-[4-cyano-1-methyl-3-(1-methyl-5-nitro-2-imidazolyl)-pyrazol-5-yl]formimidate]",< 0.125,< 0.125,< 0.125,< 0.125,< 0.125,< 0.125,< 0.125,> 32,< 0.125,< 0.125,< 0.125,< 0.125,< 0.125,< 0.125,< 0.125,< 0.125,< 0.125,16,,MIC ([16]; Bacteroides fragilis): < 0.125 µg/mL
"CN(C)C=Nc1c(C#N)c(-c2ncc([N+](=O)[O-])n2C)nn1C [Compound 9, 5-[[(Dimethylamino)methylene]amino]-1-methyl-3-(1-methyl-5-nitro-2-imidazolyl)pyrazole-4-carbonitrile]",< 0.125,< 0.125,< 0.125,< 0.125,< 0.125,< 0.125,< 0.125,> 32,< 0.125,< 0.125,< 0.125,< 0.125,< 0.125,< 0.125,< 0.125,< 0.125,< 0.125,> 32,0.25,
"Cn1nc(-c2ncc([N+](=O)[O-])n2C)c(C(=O)O)c1N [Compound 10A, 5-amino-1-methyl-3-(1-methyl-5-nitro-2-imidazolyl)pyrazole-4-carboxylic acid]",,,,,,,,> 32,,,,1,1,,,,0.5,16,0.25,"MIC ([1]; 24 h, Fusobacterium symbiosum 1470): < 0.125 µg/mL; MIC ([2]; Cutibacterium acnes, 24 h, Propionibacterium acnes 79): 0.5 µg/mL; MIC ([3]; Bacteroides fragilis sp. thetaiotaomicron 1438): 0.25 µg/mL; MIC ([4]; 24 h, Clostridium innocuum 1373): 0.5 µg/mL; MIC (Actinomyces bovis 13684; 24 h, Actinomyces bovis 13684): 4 µg/mL; MIC ([5]; Bacteroides fragilis sp. fragilis 1877): 0.5 µg/mL; MIC ([6]; Veillonella parvula, 24 h, Veillonella alcalescens 1): < 0.125 µg/mL; MIC ([8]; 24 h, Fusobacterium necrophorum 13859): < 0.125 µg/mL; MIC ([9]; Collinsella aerofaciens, 24 h, Eubacterium aerofaciens 1235): < 0.5 µg/mL; MIC ([10]; Peptococcus anaerobius 1428): 8 µg/mL; MIC (Clostridium ramosum 1313; Thomasclavelia ramosa, 24 h, Clostridium ramosum 1313): 4 µg/mL; MIC ([13]; Bacteroides fragilis sp. fragilis 1936B): 8 µg/mL; MIC ([14]; Bacteroides fragilis sp. vulgatus 1211): 0.25 µg/mL"
